In patent US6919372B1, “Sustained release pharmaceutical compositions” (Yamanouchi Pharmaceutical Co., Ltd., priority 1997, dated 2005):
Where a name gives a salt, the structure may show the parent alone.

What was measured:
Format in all cases: physicochemical
[1] = Test 1: effect of ratio of benzalkonium chloride added and pH on octanol/phosphate buffer partition coefficient of BPS
Protocol: (§1) BPS was dissolved in phosphate buffer solution having pH of 5 to 8 in a concentration of 240 μg/ml. Various cations were added to the mixtures to give equivalent charge to that of BPS or 5 times or 20 times more than that of BPS. The same volume of octanol as that of the aqueous phase was added to the mixture followed by shaking at 37° C. for an hour. After centrifugation, the concentration of the pharmaceutically active substance in the aqueous phase was measured to calculate the partition coefficient.
(§2) partition coefficient=concentration of the pharmaceutically active substance in the octanol phase/concentration of the pharmaceutically active substance in the aqueous phase

[2] = Test 2: octanol/phosphate buffer partition coefficient of BPS with various cations; conditions: for PC of BPS, Equimolar amount: cation added to give equal charge; for PC of BPS, Excess × 20: cation added to give charges 20 times more; for effect of added compound on the partition coefficient of BPS (in words): octanol/phosphate buffer pH 7, compared to no ionic compound added
Protocol: as §1, §2
A variety of cations were examined with their effect if these cations would affect the partition coefficient of BPS in octanol/phosphate buffer solution (pH 7).
The pharmaceutically active substance was dissolved in an aqueous phase in a concentration of 240 μg/ml. Various cations were added to the solution to give equal charge to that of the pharmaceutically active substance or charges 20 times more than that of the substance. Then the same procedure as in Test 1 was applied to calculate the partition coefficient.

[3] = Test 3: in vitro release test of gel preparation using various cations; conditions: 10 ml phosphate buffer solution (pH 7.4) at 37° C.
Protocol: Each of the gel preparations obtained in Examples 1 to 9 and Comparative Examples 1 to 3 was evaluated, respectively, with regard to the release of the active substance in 10 ml of a phosphate buffer solution (pH 7.4) at 37° C.

[4] = octanol/phosphate buffer pH 7, 37° C., BPS 240 μg/ml

PC of BPS, Equimolar amount [2, 4] | Compound | PC of BPS, Excess × 20 [2, 4] | effect of added compound on the partition coefficient of BPS (in words) [2] | other results
 | CC#CCC(C)[C@H](O)/C=C/[C@@H]1[C@H]2c3cccc(CCCC(=O)O)c3O[C@H]2C[C@H]1O (relative stereo) [BPS, (±)-(1R*,2R*,3aS*,8bS*)-2,3,3a,8b-tetrahydro-2-hydroxy-1-[(e)-(3S*)-3-hydroxy-4-methyl-1-octen-6-ynyl]-1H-cyclopenta[b]benzofuran-5-butanoic acid, reference compound] |  |  | partition coefficient of BPS as the pH increased ([1]; phosphate buffer pH 5 to 8, FIG. 1): decreased as the pH increased; PC of BPS, no cation added ([2]; octanol/phosphate buffer pH 7, 37° C., BPS 240 μg/ml, cation added: None): 16.2
59.5 | CCCCCCCCCCCCCCCCCCCCCC[N+](C)(C)C.[Cl-] [Behenyltrimethylammonium chloride] |  |  | 
17.7 | CCCNC(C)(C)COC(=O)c1ccccc1 [Meprylcaine hydrochloride, reference compound] | 53.3 | increase | 
64.5 | CCCCCCCCCCCCCC[N+](C)(C)Cc1ccccc1.[Cl-] [Myristyldimethylbenzylammonium chloride] | 1210 |  | 
60.9 | CCCCCCCC[N+](C)(C)Cc1ccccc1.[Cl-] [Octyldimethylbenzylammonium chloride] | 568 |  | 
30.4 | CC(=O)O.CCCCCCCC/C=C\CCCCCCCCN [Oleylamine acetate] | 473 |  | 
32.6 | CC(=O)O.CCCCCCCCCCCCCCCCCCN [Stearylamine acetate] | 158 |  | 
62.3 | CCCCCCCCCCCCCCCCCC[N+](C)(C)Cc1ccccc1.[Cl-] [Stearyldimethylbenzylammonium chloride] | 1350 |  | 
83.4 | CCCCCCCCCCCCCCCCCC[N+](C)(C)C.[Cl-] [Stearyltrimethylammonium chloride] | 995 |  | 
 | CC[N+](CC)(CC)Cc1ccccc1.[Cl-] [Triethylbenzylammonium chloride] |  | increase | 
 | Cl.N=C(N)NCCC[C@H](N)C(=O)O [arginine hydrochloride, reference compound] |  | no increase | release of the active substance from gel preparation [3]: no delayed release
 | [Cl-].[Cl-].[Mg+2] [magnesium chloride, reference compound] |  | no increase | 
 | O=S(=O)([O-])[O-].[Mg+2] [magnesium sulfate] |  |  | release of the active substance from gel preparation [3]: no delayed release
 | [Cl-].[Na+] [sodium chloride] |  |  | partition coefficient of BPS when sodium chloride was added to make the solution isotonic ([1]; 20 times of equivalent molar ratio of benzalkonium chloride included): decreased
 | CCCCCCCCCCCCOS(=O)(=O)[O-].[Na+] [sodium lauryl sulfate, reference compound] |  | no change | 
 | protamine sulfate [reference compound] |  | did not affect | 
 | sorbitan sesquioleate [reference compound] |  | no change | 

Compound | PC of BPS, Equimolar amount [2, 4] | PC of BPS, Excess × 20 [2, 4] | effect of added compound on the partition coefficient of BPS (in words) [2] | other results
CC(C)(C)CC(C)(C)c1ccc(OCCOCC[N+](C)(C)Cc2ccccc2)cc1 [Benzethonium chloride] | 70.8 | 1180 |  | 
CCCCCCCCCCCCCCCC[N+](C)(C)C.[Cl-] [Cetyltrimethylammonium chloride] | 91.6 | 935 |  | 
CCCCCCCCCCCC[N+](C)(C)Cc1ccccc1.[Cl-] [Lauryldimethylbenzylammonium chloride] | 71.2 | 1220 |  | 
CCCCCCCCCCCC[n+]1ccccc1.[Cl-] [Laurylpyridinium chloride] | 75.0 | 1200 |  | 
CCCCCCCCCCCC[N+](C)(C)C.[Cl-] [Lauryltrimethylammonium chloride] | 83.5 | 985 | increase | 
CCN(CC)CC(=O)Nc1c(C)cccc1C [Lidocaine hydrochloride, reference compound] | 17.1 | 37.5 |  | 
CCCC[N+](CCCC)(CCCC)Cc1ccccc1.[Cl-] [Tributylbenzylammonium chloride] | 24.5 | 140 |  | 
